Experimental data as given in patent US6472348B1, “Pyridone derivatives and herbicides” (Kumiai Chemical Industry Co., Ltd., priority 1996, dated 2002).

Tests used:
Assay type in all cases: in vivo
Set-up in all cases: scale not given here
[1] = tested on: common lambsquarters (Ch); test: Test Example 4: crop plant selectivity by upland field soil treatment (cotton), herbicidal effects; details: evaluated 21st day after application
How it was run: (§1)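 Sand-filled pots, seeds sown then soil-covered; soil application; greenhouse culture; visual scoring of weed control and cotton injury at day 21 post-application.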

pale smartweed (Po) [2] = test: as above; details: evaluated 21st day after application
How it was run: as §1

rice flatsedge (Ci) = test: Test Example 3: herbicidal effects by upland field foliage treatment
How it was run: (§2)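 Greenhouse test, upland conditions: seeds sown in sand pots of 120 cm^2 area and overlaid with soil; 2 weeks growth; leaves treated; herbicidal injury graded on day 14 after treatment by fixed standards.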

[3] = tested on: common lambsquarters (Ch); test: as above
How it was run: as §2

slender amaranth (Am) = test: as above
How it was run: as §2

pale smartweed (Po) [4] = test: as above
How it was run: as §2

Diaitaria ciliaris (Di) = test: as above
How it was run: as §2

barnyardgrass (Ec) = test: as above
How it was run: as §2

cotton (Go) = test: Test Example 4: crop plant selectivity by upland field soil treatment (cotton), phytotoxicity; details: evaluated 21st day after application
How it was run: as §1

wheat (Tr) = test: Test Example 5: crop plant selectivity by upland field soil treatment (wheat), phytotoxicity; details: 21st day after application
How it was run: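 Wheat and weeds were sown in sand-filled pots and covered with soil, then treated by soil application. Plants grew in a greenhouse, and herbicidal effect and crop phytotoxicity were scored on a rating scale 21 days after application.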

[5] = 100 g active ingredient per 10 ares, evaluated 14th day after treatment
[6] = 100 g of the active ingredient per 10 ares, evaluated on the 14th day after treatment

SMILES	Herbicidal effects Ch ([1]; dose 1.6 g ai/10 a)	Herbicidal effects Ch ([1]; dose 6.3 g ai/10 a)	Herbicidal effects Po (pale smartweed (Po) [2]; dose 1.6 g ai/10 a)	Herbicidal effects Po (pale smartweed (Po) [2]; dose 6.3 g ai/10 a)	Herbicidal effects Ci (rice flatsedge (Ci); [5])	Herbicidal effects Ch [3, 5]	Herbicidal effects Am (slender amaranth (Am); [5])	Herbicidal effects Po (pale smartweed (Po) [4]; [5])	Herbicidal effects Di (Diaitaria ciliaris (Di); [5])	Herbicidal effects Ec (barnyardgrass (Ec); [5])	Phytotoxicity Go (cotton (Go); dose 1.6 g ai/10 a)	Phytotoxicity Go (cotton (Go); dose 6.3 g ai/10 a)	Phytotoxicity Tr (wheat (Tr); dose 1.6 g ai/10a)	Herbicidal effects Ci (rice flatsedge (Ci); [6])	Herbicidal effects Ch [3, 6]	Herbicidal effects Am (slender amaranth (Am); [6])	Herbicidal effects Po (pale smartweed (Po) [4]; [6])	Herbicidal effects Di (Diaitaria ciliaris (Di); [6])	Herbicidal effects Ec (barnyardgrass (Ec); [6])	Phytotoxicity Tr (wheat (Tr); dose 6.3 g ai/10a)
C#CC(C)Oc1cc(-c2cn(C)c(C(F)(F)F)cc2=O)c(F)cc1Cl (racemic) [Compound 6-10]	5	5	5	5	5	5	5	5	5	5	0	1	0							
COc1cc(-c2ccc(C(F)(F)F)n(C)c2=O)c(F)cc1Cl [1-15]	5	5	5	5							0	1	2	5	5	5	5	5	5	
C=CCOc1cc(-c2ccc(C(F)(F)F)n(C)c2=O)c(F)cc1Cl [1-16]	5	5	5	5							0	0	1	5	5	5	5	5	5	1
C#CC(C)Oc1cc(-c2ccc(C(F)(F)F)n(C)c2=O)c(F)cc1Cl (stereo not drawn) [1-17]	5	5	5	5							0	0	1	5	5	5	5	5	5	
C#CCOc1cc(-c2ccc(C(F)(F)F)n(C)c2=O)c(F)cc1Cl [1-18]	5	5	5	5							1	1	2	5	5	5	5	5	5	
Cn1c(C(F)(F)F)ccc(-c2cc(OCC#N)c(Cl)cc2F)c1=O [1-25]		5		5								1		5	5	5	5	5	5	
C#CCOc1cc(-c2ccc(C(F)(F)F)n(C)c2=O)c(Cl)cc1Cl [1-30]	5	5	5	5							0	1	2	5	5	5	5	5	5	
CC(C)Sc1cc(-c2ccc(C(F)(F)F)n(C)c2=O)c(F)cc1Cl [1-43]		5		5								0		5	5	5	5	5	5	1
C#CCSc1cc(-c2ccc(C(F)(F)F)n(C)c2=O)c(F)cc1Cl [1-44]		5		5								1		5	5	5	5	5	5	1
CCOC(=O)c1cc(-c2ccc(C(F)(F)F)n(C)c2=O)c(F)cc1Cl [1-65]	5	5	5	5							0	0	0	5	5	5	5	5	5	1
Cc1cc(-c2ccc(C(F)(F)F)n(C)c2=O)c(F)cc1Cl [1-90]		5		5								1		5	5	5	5	5	5	1
COCSc1cc(-c2ccc(C(F)(F)F)n(C)c2=O)c(F)cc1Cl [1-91]	5	5	5	5							0	1	1	5	5	5	5	5	5	
Cn1c(C(F)(F)F)ccc(-c2cc(Cl)c(Cl)cc2F)c1=O [1-136]		5		5								1	1	5	5	5	5	5	5	2
Cn1c(C(F)(F)F)ccc(-c2cc(OCC(F)(F)F)c(Cl)cc2F)c1=O [1-155]	5	5	5	5							0	0	1	5	5	5	5	5	5	2
Cn1c(C(F)(F)F)ccc(-c2cc(OCC3CC3)c(Cl)cc2F)c1=O [1-160]		5		5								1		5	5	5	5	5	5	2
C#CCN1C(=O)COc2cc(F)c(-c3cn(C)c(C(F)(F)F)cc3=O)cc21 [Compound 7-1]				5	5	5	5	5	5	5		1								2
Cn1c(C(F)(F)F)ccc(-c2cc(C#N)c(Cl)cc2F)c1=O [Compound No. 1-119, 3-(4-chloro-5-cyano-2-fluorophenyl)-1-methyl-6-trifluoromethyl-2(1H)-pyridone]		5		5								0		5	5	5	5	5	5	
